Results: patent US10188659B2, “IGF-1R signaling pathway inhibitors useful in the treatment of neurodegenerative diseases” (YISSUM RESEARCH DEVELOPMENT COMPANY OF THE HEBREW …, priority 2013, dated 2019)
Values joined by “and” are separate entries in the source; they are usually repeats but may differ in a detail not shown here. Equal values may be shown once.

Experiments:
[1] = tested on: CF512 worms; test: Heat stress assay; type: in vivo, Caenorhabditis elegans; details: for stress resistance (survival): 300 μM, 3 hours at day 1, 35° C. for 15 hours
[2] = tested on: DAF-16::GFP expressing worms (strain TJ356); test: DAF-16 localization assay; type: in vivo, Caenorhabditis elegans; details: 300 μM, 6 hours
Procedure: Synchronized TJ356 worms were grown on the EV control bacteria. At the indicated ages (days 1 of adulthood), 25 worms were transferred onto daf-2 RNAi bacteria for the indicated time (6 h). […] (Molecular Probes), Invitrogen, Carlsbad, Calif., USA]. DAPI and GFP signals were visualized using a fluorescent microscope (Leica DM6000 B; Leica, Wetzlar, Germany). […] The worms were let hatched and develop on control bacteria harboring an empty vector (EV) (FIG. 1A) or on daf-2 RNAi bacteria (FIG. 1B). […] The worms were then fixed and stained with DAPI. […] Paralyzed worms were scored daily. […] The worms were placed on plates seeded with EV bacteria and exposed to 35° C. for 15 hours and survival rates were scored by counting the surviving worms. The results of a representative experiment (three repeats were performed) is presented on FIG. 3.

[3] = tested on: Aβ worms (strain CL2006); test: Paralysis assay in Aβ worms; type: in vivo, Caenorhabditis elegans
[4] = tested on: CF512 worms; test: UV stress assay; type: in vivo, Caenorhabditis elegans; details: sub-lethal UV dose
[5] = tested on: IRS1 and IRS2; test: IRS1/IRS2 Ser-phosphorylation and degradation, Western blot in A375 cells
[6] = tested on: polyQ40-YFP worms; test: polyQ40-YFP foci count; type: in vivo, Caenorhabditis elegans
[7] = tested on: Aβ; test: Aβ immunofluorescence in worms; type: in vivo, Caenorhabditis elegans; details: immuno-fluorescence
[8] = tested on: hsp-70 promoter (hsp-70p::GFP); test: hsp-70 promoter GFP induction after heat, fluorescent microscopy; type: in vivo, Caenorhabditis elegans; details: 600 μM, heat stress 33° C., 3 h
[9] = tested on: polyQ35-YFP worms; test: Motility assay (crawling speed); type: in vivo, Caenorhabditis elegans; details: 600 μM daily day 1 to 11
[10] = tested on: Aβ; test: Aβ aggregation, Western blot after high-speed centrifugation; type: in vivo, Caenorhabditis elegans; details: CL2006 worms, WB with 6E10 antibody
[11] = tested on: hsp-16.2 promoter (strain CL2070); test: hsp-16.2 promoter GFP induction after heat, Western blot; type: in vivo, Caenorhabditis elegans; details: CL2070 worms, 33° C. three hours
[12] = tested on: DAF-16, HSF-1 and SKN-1 target genes; test: Real-time quantitative PCR of IIS target genes; type: in vivo, Caenorhabditis elegans; details: CF512 worms, 600 μM, 3 hours days 1 and 2, vs control
[13] = tested on: AKT; test: IGF1-induced AKT phosphorylation, Western blot in A375 cells; type: cell-based, human
[14] = tested on: polyQ40-YFP; test: polyQ40-YFP aggregation (WB, high-speed pellets, native gel); type: in vivo, Caenorhabditis elegans

`Oc1cc(CNC(=S)/C=C/c2cc(O)c(O)c(Br)c2)cc(O)c1O` [Compound 29] was tested, and the “stress resistance (survival)” value [1] was “elevate stress resistance of CF512 worms”, the “nuclear localization of DAF-16 (co-localization of DAPI and GFP signals)” value [2] was “confirmed the nuclear localization of DAF-16” and the paralysis rates ([3]; 300 μM, soaked 3 hours days 1 and 2, then daily 25 μl) was “increased in reduced rates compared to the untreated control”.
For `Oc1cc(CNC(=S)/C=C/c2ccc(O)c(O)c2Br)cc(O)c1O` [Compound 39], the “stress resistance (survival)” value [1] was “elevate stress resistance of CF512 worms”, the “raise of survival rates compared to the untreated population” value ([1]; 15 hours at 35° C.) was 33% and the “survival rate after heat stress” value ([1]; 15 hours at 35° C.) was 72% and 71.7%. The “mean survival after UV radiation (days±SEM)” value [4] was 8.76 ± 0.21 days, the “IRS1 and IRS2 protein levels” value ([5]; long exposure (19 hours)) was “elimination of IRS1 and IRS2” and the “phosphorylation of IRS1 and IRS2 on serine residues” value ([5]; short exposure (4 hours)) was “massive phosphorylation on serine residues”. For the same molecule, the “average number of polyQ40-YFP foci/worm” value [6] was 52.78 foci/worm, the “Aβ amounts and distribution” value [7] was “enhanced the amount of Aβ and led to its accumulation in the central part of the animal's body” and the “hsp-70 promoter driven GFP fluorescence” value [8] was “elevated GFP fluorescence levels”. For the same molecule, the “average crawling speed at day 11 relative to day 1 of adulthood” value [9] was 32.9%, the “high molecular-weight Aβ aggregates” value [10] was “elevated amount of high molecular-weight Aβ aggregates” and the “rate of paralyzed worms at day 12” value ([3]; 600 μM compound (or daf-2 RNAi throughout), day 12 of adulthood) was 29%. For the same molecule, the “hsp-16.2 promoter driven GFP level” value ([11]; 150 μM) was “no detectable effect”, the “hsp-16.2 promoter driven GFP level” value ([11]; 300 μM) was “moderate effect” and the “hsp-16.2 promoter driven GFP level” value ([11]; 600 μM) was “remarkably increased the induction of GFP”. The “hsp-16.2 promoter driven GFP level” value ([11]; 900 μM) was “lower effect than that of 600 μM”, the “average increase of expression of DAF-16 and SKN-1 target genes” value [12] was 19-37% and the “elevation of expression level of hsp-70” value [12] was “approximately 170%”. The “AKT phosphorylation, kinetic experiment” value [13] was “partial inhibition of AKT phosphorylation”, the “IGF1-induced activation of AKT (phosphorylation on threonine 308 and serine 473)” value ([13]; A375 cells, short and long exposures) was “abolished the IGF1-induced activation of AKT” and the “polyQ40-YFP aggregation, YFP fluorescence on native gel” value ([14]; 1% native gel) was “did not exhibit elevated rates of polyQ40-YFP aggregation”. The “aggregated polyQ40-YFP in high-speed pellets” value ([14]; WB after high-speed centrifugation) was “no increase was seen” and the “SDS resistant polyQ40-YFP aggregates, whole worm homogenates” value ([14]; WB, GFP antibody, day 2) was “no such material could be detected”.
